According to article PMC5451472, “Novel Locally Active Estrogens Accelerate Cutaneous Wound Healing-Part 2” (Scientific Reports, 2017):
Values belong to the compound of their own block, whether it stands above or below them.

Assays:
ERs = target: T1, ERs (Homo sapiens, UniProt P03372); assay: ER transactivation assay in ERE-Luc B17 cells (luciferase reporter); assay type: cell-based; settings: for EC50: ERE-Luc B17 cells (MCF-7 clone), 24 h, luciferase activity, sigmoidal dose-response, read-out: EC50 (transactivation potency); for fold induction at 10 µM / activity on ERs: ERE-Luc B17 cells; for fold induction at 10 µM: 10^-5 M of compound respect to vehicle
T1 construct: endogenous in cells; host or cells: MCF-7, clone ERE-Luc B17 (only the luciferase reporter is transfected)
T1 sequence (P03372 1-595): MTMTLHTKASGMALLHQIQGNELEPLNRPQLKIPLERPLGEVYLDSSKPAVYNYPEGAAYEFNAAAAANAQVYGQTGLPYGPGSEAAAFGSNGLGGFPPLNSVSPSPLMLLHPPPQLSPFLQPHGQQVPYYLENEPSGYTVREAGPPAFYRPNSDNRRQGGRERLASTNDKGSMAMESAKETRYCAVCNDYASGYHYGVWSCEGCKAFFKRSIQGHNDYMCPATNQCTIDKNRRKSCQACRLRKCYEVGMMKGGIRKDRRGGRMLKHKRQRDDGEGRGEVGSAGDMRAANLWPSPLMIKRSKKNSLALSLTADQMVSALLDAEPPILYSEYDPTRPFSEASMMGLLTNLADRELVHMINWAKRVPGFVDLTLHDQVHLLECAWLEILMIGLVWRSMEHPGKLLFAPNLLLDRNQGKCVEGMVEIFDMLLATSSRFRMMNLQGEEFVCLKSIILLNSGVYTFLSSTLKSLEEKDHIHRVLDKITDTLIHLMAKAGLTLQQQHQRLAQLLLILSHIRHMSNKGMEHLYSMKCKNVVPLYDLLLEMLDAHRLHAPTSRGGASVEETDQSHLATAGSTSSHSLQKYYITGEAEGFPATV
Method: The ability of the novel compounds to transcriptionally activate ERs was tested in ERE-Luc B 17 cells, a clone of the breast cancer cell line MCF-7 stably transfected with a reporter constituted by the luciferase gene driven by an estrogen-regulated synthetic promoter previously generated and tested in our laboratories.
Cells were split twice a week by seeding 2 × 10^6 cells in 100 mm diameter Petri (Corning) dishes.
After 24 h cells were rinsed once with PBS before preparing the protein extract for the determination of luciferase content. Each experiment was carried out in duplicate.
Luciferase enzymatic activity was measured in cells or selected tissue homogenates by a luminometer (Glomax™96 microplate luminometer; Promega) using Promega standard luciferin (Beetle Luciferin Potassium Salt) and expressed as Relative Light Units over 10 sec/μg protein (RLU/μg protein). Proteins concentrations were measured by Bradford.
Analysis of transactivation data and calculation of EC50 values were performed by means of sigmoidal dose-response (variable slope) using PRISM5 software (GraphPad Software Inc.).

[1] = tested on: ER transcriptional activity; assay: In vivo BLI time course in wounded ovariectomized ERE-Luc mice, compounds s.c. around the wound; set-up: species or system mouse
Method: To study the estrogenic and healing properties of the two compounds, we generated a wound in the ERE-Luc mouse model and tested the activity of the two compounds administered s.c. in the area surrounding the wound as described in the methodology section.
Each group was composed of 4 ERE-Luc females’ mice ovariectomized 2 weeks’ prior the experiment to avoid any interference due to endogenous estrogens. Photon emission was measured in the living animals three times: at 0, 3 and 6 h after s.c. injection.
(§1) ERE-Luc and MITO-Luc mice were ovariectomized at two months of age; the experiment was done 2 weeks after surgery to allow the animals to recover and to decrease the levels of circulating estrogens. The animals were fed ad libitum with a special estrogen free diet (AIN 93 M, Mucedola) (Ciana et al. Endocrinology 2005) and housed in individually ventilated plastic cages within a temperature range of 22–25 °C, relative humidity of 50% ± 10% and under an automatic cycle of 12 h light/dark (lights on at 07:00 am). All animal experimentation was carried out in accordance with the ARRIVE and European Guidelines for Animal Care. All animal experiments were approved by the Italian Ministry of Research and University and controlled by a Departmental panel of experts. For the correct dosage of the compounds, the body weight of the animals (on empty stomach, fasted for at least 12–14 hours) was determined immediately before the treatment.
(§2) Ovariectomy was carried out as previously described. Wound healing was done after shaving by VEET depilatory cream a day before the treatment. The 1 cm full-thickness incisional wound was made through the skin and panniculus carnosus muscle of ovariectomized MITO-luc using a surgical scalpel (blade n°10, carbon steel, Swann-Morton Ltd). Round full-thickness wounds were done by cutting out a section of full-thickness skin (around 9 mm in diameter) using fine scissors on the dorsal skin of the isoflurane-anesthetized animal. For in vivo treatment the compounds were administered onto the subcutaneous area surrounding the wound by multiple subcutaneous injection, immediately after the generation of the wound.
For the semi-quantitative analysis of in vivo photon emission, animals were injected i.p. with 80 mg/kg of luciferin (Beetle Luciferin Potassium Salt; Promega, Madison, WI, USA) 15 min prior the imaging session. For the imaging, mice were anaesthetized using isofluorane (Isofluorane-Vet; Merial, Lyon, France) and kept under anesthesia during the 5 minutes of the session carried out with a CCD camera: both ventral and dorsal acquisition (Xenogen IVIS Lumina System; Caliper, PerkinElmer company). Photon emission in selected body areas was measured using the Living Image Software (Caliper, PerkinElmer company). The analysis was done in ventral view: whole body, thymus, hepatic area, abdomen, limbs, vagina and in dorsal view in wound area and expressed as photon/second/cm2/steradiant (p/s/cm2/sr).

[2] = set-up: method as in PMID 19718805; settings: cited from earlier work
ERE-Luc mice = assay: Uterus weight of ERE-Luc mice; assay type: in vivo, mouse; settings: 20 µg/kg s.c., 6 h after treatment
Excerpt: The final study aiming at investigating the systemic effect of the NCE was done by measuring the uterus weight of all treated animal as the golden standard for the quantitative measure of estrogenic compounds.

MITO-Luc mice [3] = assay: Granulation tissue histoscore of round full-thickness wound at day 10; assay type: in vivo, mouse; settings: 20 µg/kg s.c., day 10, round wound, scale 1-3 (vehicle 0.3)
Method: The measure of photon emission from the wound area was done for several days after the wounding. 3 days after treatment the bioluminescent signal is highest (Fig. 10 Panel a).
as §2
At the time of euthanasia, the wounds with surrounding healthy tissue were excised, distended on a strip of hard paper and fixed in 10% buffered formalin (pH = 6). […] For histopathological examination 4 µm sections were routinely stained with Hematoxylin-Eosin (HE) and evaluated under a light microscope. The degree of re-epithelialization, the type and amount of granulation tissue and inflammation, which are the main features of wound healing, were scored separately. […]

[4] = tested on: MITO-Luc mice (reporter of mitosis); assay: Proliferation in the wound area, in vivo BLI of MITO-Luc mice; set-up: species or system mouse
Excerpt: Wound healing is a dynamic process consisting of four continuous, overlapping, and precisely programmed phases: hemostasis, inflammation, proliferation and tissue growth (proliferation) and remodeling (maturation). The healing effect of estrogens may be exerted at several levels, certainly the ability of the hormone to accelerate macrophage polarization towards the M2-reparative polarization stage plays a relevant role, however estrogens may also facilitate local cell proliferation and the formation of the granulation tissue, epithelialization, and wound contraction.
The experiments were done with the 1e compound as completely deprived of any activity on the uterus (Fig. 6). […] Photon emission was measured in the wound area at the following time: 0, 24, 48 and 72 hours post-treatment.
as §1
as §2, with “For in vivo treatment the compounds were administered onto the subcutaneous area surrounding the wound by multiple subcutaneous injection, immediately after the generation of the wound.” left out
For the semi-quantitative analysis of in vivo photon emission, animals were injected i.p. with 80 mg/kg of luciferin (Beetle Luciferin Potassium Salt; Promega, Madison, WI, USA) 15 min prior the imaging session. […] Photon emission in selected body areas was measured using the Living Image Software (Caliper, PerkinElmer company). The analysis was done in ventral view: whole body, thymus, hepatic area, abdomen, limbs, vagina and in dorsal view in wound area and expressed as photon/second/cm2/steradiant (p/s/cm2/sr).

MITO-Luc mice [5] = assay: Macrophage count (Iba1 immunohistochemistry) around the wound site; assay type: in vivo, mouse; settings: 20 µg/kg s.c., 72 hours after treatment
Method: To better understand whether the healing effect of 1e could be attributed to its anti-inflammatory action, at the end of in vivo imaging (72 hours after treatments) the tissue surrounding the wound was dissected and subjected immunohistochemical analysis using the pan macrophage marker Iba1. […] This observation confirmed that the estrogenic compounds were able to regulate the immune response at local level.
In particular, the criteria for the assignation of granulations value are: 1 = wound bed partially covered with granulation tissue; 2 = thin granulation over the whole wound bed; 3 = thick granulation over the whole wound bed. Evaluation of macrophages was done through a specific antibody and digital image analysis: 4 µm sections from each wound healing sample were immunostained with primary rabbit […] antibody against Iba1 antigen (Wako; #019-19741) to assess the number of macrophages.
The number of positive cells were counted using the ImageJ analysis program (http://rsb.info.nih.gov/ij/) in 400x microscopic fields selected at the periphery of the wound area.

MITO-Luc mice [6] = assay: Wound area measurement in MITO-Luc mice; assay type: in vivo, mouse; settings: 20 µg/kg s.c., 72 hours after treatment (vehicle 50%)
Method: To investigate to which extent the increased proliferation observed after the pharmacological treatments was functional to the healing process, we measured the size of the wound (Fig. 9a).
as §2

- EC50 (ERs): 0.92 µM
- fold induction at 10 µM (ERs): 4.3
SMILES: COC(=O)CCC#C[C@]1(O)CC[C@H]2[C@@H]3CCc4cc(O)ccc4[C@H]3CC[C@@]21C [1a, 3,17β-Hydroxy-17α-(4′carbomethoxy-1′-butyn-1′-yl)estra-1,3,5-(10)-triene]

SMILES: CCOC(=O)CCC#C[C@]1(O)CC[C@H]2[C@@H]3CCc4cc(O)ccc4[C@H]3CC[C@@]21C [1b, 3,17β-Hydroxy-17α-(4′carbethoxy-1′-butyn-1′-yl)estra-1,3,5-(10)-triene]
- activity on ERs (ERs): did not show any activity

- EC50 (ERs): 2.3 µM
- fold induction at 10 µM (ERs): 2.6
SMILES: CCCOC(=O)CCC#C[C@]1(O)CC[C@H]2[C@@H]3CCc4cc(O)ccc4[C@H]3CC[C@@]21C [1c, 3,17β-Hydroxy-17α-(4′carbopropoxy-1′-butyn-1′-yl)estra-1,3,5-(10)-triene]

- fold induction at 10 µM (ERs): 5
SMILES: CC(C)OC(=O)CCC#C[C@]1(O)CC[C@H]2[C@@H]3CCc4cc(O)ccc4[C@H]3CC[C@@]21C [1d, 3,17β-Hydroxy-17α-(4′carbo-iso-propoxy-1′-butyn-1′-yl)estra-1,3,5-(10)-triene]

SMILES: CCCCCOC(=O)CCC#C[C@]1(O)CC[C@H]2[C@@H]3CCc4cc(O)ccc4[C@H]3CC[C@@]21C [1f]
- photon emission in body areas (whole body, thymus, hepatic area, abdomen, limbs, vagina) ([1]; 200 µg/kg s.c. around wound, 3 or 6 h, ovx mice): did not observe increased photon emission in any of the body areas
- increase of photon emission in the wound area with respect to time 0 ([1]; 200 µg/kg s.c., 6 hours, trend): 20%

- EC50 (ERs): 0.13 µM
- fold induction at 10 µM (ERs): 2.5
SMILES: COC(=O)CCCC#C[C@]1(O)CC[C@H]2[C@@H]3CCc4cc(O)ccc4[C@H]3CC[C@@]21C [1g, 3,17β-Hydroxy-17α-(5′carbomethoxy-1′-butyn-1′-yl)estra-1,3,5-(10)-triene]

SMILES: CCOC(=O)CCCC#C[C@]1(O)CC[C@H]2[C@@H]3CCc4cc(O)ccc4[C@H]3CC[C@@]21C [1h]
- activity on ERs (ERs): did not show any activity

SMILES: CCCCC(=O)OCCC#C[C@]1(O)CC[C@H]2[C@@H]3CCc4cc(O)ccc4[C@H]3CC[C@@]21C [2e]
- in vivo healing and systemic activity [2]: substantially accelerated healing without systemic activity

SMILES: C[C@]12CC[C@@H]3c4ccc(O)cc4CC[C@H]3[C@@H]1CC[C@@]2(O)C#CCCCO [6a]
- activity on ERs (ERs): did not show any activity

SMILES: C[C@]12CC[C@@H]3c4ccc(O)cc4CC[C@H]3[C@@H]1CC[C@@H]2O [17β-estradiol, reference compound]
- uterus weight higher than average weight of controls (ERE-Luc mice): 35%
- average uterus weight (ERE-Luc mice; n = 4): 22.8 mg
- Score of granulation tissue (fibrosis), histoscore mean (MITO-Luc mice [3]): 2
- increase of photon emission from wound ([4]; 20 µg/kg s.c. around wound, 72 h versus time 0, ovx MITO-Luc): 78%
- photon emission from the wound area ([4]; 20 µg/kg s.c., 48 hours after administration): significantly increased
- luciferase activity in whole body and body areas ([1]; 20 µg/kg s.c. around wound, ovx mice): induced a significant increase
- increase of photon emission in the wound area with respect to vehicle-treated mice ([1]; 20 µg/kg s.c., 6 hours): 40%
- number of macrophages (Iba1 positive) in the wound area lower than in controls (MITO-Luc mice [5]): 44%
- wound area reduction (MITO-Luc mice [6]): 60%
